Results: patent US20080182893A1, “Anti-Atherogenic Composition” (SAN-EI GEN F.F.I., INC., priority 2005, published 2008)

System: ApoE-KO mice
Assay: Test Example 2: influence of EMIQ and QC on atherosclerosis, thoracic-abdominal aortic lesion area
Assay type: in vivo
Conditions: low dose 33 μmol/kg in feed, 14 weeks, versus control group (G1), FIG. 2
Description: The EMIQ prepared in Preparation Example 2 and the QC prepared in Preparation Example 3 were orally administered for 14 weeks to ApoE-KO mice in order to elucidate the atherosclerosis progression inhibiting effect of these substances. The atherosclerosis progression inhibiting effect was evaluated based on the atherosclerotic lesion area rate (%) at the thoracic-abdominal aorta of the ApoE-KO mice.
Specifically, before the test the test animals (ApoE-KO mice) were housed for 11 days for environmental acclimation and were then assigned, taking into consideration the body weight and total serum cholesterol (T-cho value), into the following four groups (8 animals in each group) in a completely randomized design using a group assignment system (Statlight #11 Group Assignment, Yukms Co., Ltd., Tokyo): the control group (a group not receiving either substance, G1), a group receiving quercetin admixed in the feed at 33 μmol/kg (low-dose QC group, G2), a group receiving EMIQ admixed in the feed at 33 μmol/kg (low-dose EMIQ group, G3), and a group receiving EMIQ admixed in the feed at 330 μmol/kg (high-dose EMIQ group, G4). […]

O=c1c(O)c(-c2ccc(O)c(O)c2)oc2cc(O)cc(O)c12 [QC, quercetin]
thoracic-abdominal aortic atherosclerotic lesion area rate (%): no difference
